These results are taken from US9914709B2, “Compositions and methods of treating HIV-1 infections using same” (YALE UNIVERSITY, priority 2013, dated 2018).

The conditions of data set [1]: cited from earlier work.
For data set [2], the system named is HIV-1 K103N/Y181C variant. Description: microbe, parasite or virus in culture. The class given is cell-based.
For another data set, the system named is HIV-1 Y181C variant. Description: microbe, parasite or virus in culture. Type of data set: cell-based.
The next data set in a line: physchem. The conditions noted are these: for increase in S: 48 h; for Aqueous Solubility (S): Table 5, pH 6.5; for solubility at 48 h: 25 °C, thermodynamic from solid. On the procedure: The compounds were dissolved in Britton-Robinson buffer and stirred in vials for 48 hours at 25° C. The pH of the buffer solutions was measured by a Corning General Purpose pH Combination probe (4136L21).
For measurement of aqueous solubility, the pH of the buffer solutions was measured by Corning Combination pH Electrodes (4136L21) pH meter with Ag/AgCl glass electrode. […] An Ika® RCT basic magnetic stirrer was used to mix the two phases.
The equilibrium solubility of the non-ionized form of the samples was determined by the shake flask method. For each reported solubility result, two or three independent shake-flask experiments were carried out in parallel. For each experiment the 5 mg of the solid was added to 5 mL of the buffer in a vial. […] The standards and samples were measured by UV spectrophotometry at the maximum wavelength of the individual compounds.

Another data set in a line: in vitro. Conditions: human.
The test system of data set [3] is IIIB strain of HIV-1 (wild-type). Description: Anti-HIV-1 activity, MT-2 cells infected with wild-type HIV-1 (IIIB), MTT method. Type of data set: cell-based. Conditions: for pEC50: Human immunodeficiency virus 1, IIIB, MT2, read-out: EC50 WT. (In general: Tetrazolium assays rely on reduction of a dye to a coloured formazan, in cell work by metabolically active cells.)

Setting [4] is: Human immunodeficiency virus 1, MT2, read-out: EC50 K103N/Y181C.
The mark [5] stands for this setting: Human immunodeficiency virus 1, MT2, read-out: EC50 Y181C.
The mark [6] stands for this setting: Human immunodeficiency virus 1, MT2, read-out: EC50, Y181C variant.

pEC50: −log10 of the molar value. Where two headings read alike, the source gives them in different places. Marks after values point to notes of the source that are not given here. A value given as a limit tells only on which side of the number the result lay.

As usually defined, the solubility is the dissolved amount per volume that the medium holds. For `CC(C)=CCOc1cc(NC(=S)c2ccoc2C)ccc1Cl` [UC-781], the solubility in data set [1] (Yang et al. 2008) is under 0.03 µg/mL.

On to `CCc1cc(F)c(Nc2nc(Nc3ccc(C#N)cc3)nc(OCCCN3CCOCC3)n2)c(F)c1` [Compound 6f, 4-((4-((4-ethyl-2,6-difluorophenyl)amino)-6-(3-morpholinopropoxy)-1,3,5-triazin-2-yl)amino)benzonitrile], for which the pEC50 in data set [2] (setting [4]) is 7.30; in the data set on HIV-1 Y181C variant (setting [5]), 6.30.

For the molecule `Cc1cc(C)c(Nc2cc(OCCN3CCOCC3)nc(Nc3ccc(C#N)cc3)n2)c(C)c1` [Compound 5a, 4-((4-(mesitylamino)-6-(2-morpholinoethoxy)pyrimidin-2-yl)amino)benzonitrile], the pEC50 in data set [2] (setting [4]) is 7.22; in the data set on HIV-1 Y181C variant (setting [6]) it was 6.15; with HIV-1 Y181C variant (setting [5]) it was 6.15. The “increase in S” value in “physchem” came out at 83 fold. Also, the “Aqueous Solubility (S)” value in the data set “physchem” amounted to 12.5 µg/mL.

Consider `Cc1cc(F)c(Nc2nc(Nc3ccc(C#N)cc3)nc(OCCCN3CCOCC3)n2)c(F)c1` [Compound 6e, 4-((4-((2,6-difluoro-4-methylphenyl)amino)-6-(3-morpholinopropoxy)-1,3,5-triazin-2-yl)amino)benzonitrile], for which the pEC50 is 7.15 in data set [2] (setting [4]) and 6.46 in the data set on HIV-1 Y181C variant (setting [5]). Further, in the data set “physchem”, the “Aqueous Solubility (S)” value came to 22.9 µg/mL.

Regarding `N#C/C=C/c1cc(F)c(Nc2nc(NCCCN3CCOCC3)nc(Nc3ccc(C#N)cc3)n2)c(F)c1` [JLJ0597, (E)-4-((4-((4-(2-cyanovinyl)-2,6-difluorophenyl)amino)-6-((3-morpholinopropyl)amino)-1,3,5-triazin-2-yl)amino)benzonitrile], the pEC50 is 7.80 in data set [2] (setting [4]), 8.24 in data set [3] and 7.12 with HIV-1 Y181C variant (setting [5]). In “in vitro”, this molecule had a CC50 of 7000 nM.

For `Cc1cc(C#N)cc(C)c1Oc1nc(Nc2ccc(C#N)cc2)nc(N)c1Br` [etravirine], in data set [1] (Table 5, literature values (Morelock 1994; Weuts 2011)), the “Aqueous Solubility (S)” value is on record as <<1^b μg/mL. Further, the aqueous solubility entry in data set [1] (literature values) was “lower than 1 μg/mL”.

For `Cc1cc(C)c(Nc2nc(Nc3ccc(C#N)cc3)nc(OCCCC3CCNCC3)n2)c(C)c1` [Compound 12b, 4-((4-(mesitylamino)-6-(3-(piperidin-4-yl)propoxy)-1,3,5-triazin-2-yl)amino)benzonitrile], the pEC50 in data set [2] (setting [4]) was 6.85; in the data set with HIV-1 Y181C variant (setting [5]) it was 5.92.

With `N#C/C=C/c1cc(F)c(Nc2cc(OCCCN3CCOCC3)nc(Nc3ccc(C#N)cc3)n2)c(F)c1` [Compound 5d, (E)-4-((4-((4-(2-cyanovinyl)-2,6-difluorophenyl)amino)-6-(3-morpholinopropoxy)pyrimidin-2-yl)amino)benzonitrile], the pEC50 in data set [2] (setting [4]) was 8.15; in data set [3], 8.39; in the data set on HIV-1 Y181C variant (setting [5]), 6.82. In the data set “in vitro”, the CC50 amounted to 18000 nM.

Regarding `N#C/C=C/c1cc(F)c(Nc2cc(NCCCN3CCOCC3)nc(Nc3ccc(C#N)cc3)n2)c(F)c1` [JLJ0619, (E)-4-((4-((4-(2-cyanovinyl)-2,6-difluorophenyl)amino)-6-((3-morpholinopropyl)amino)pyrimidin-2-yl)amino)benzonitrile], the values for the pEC50 (in data set [2] (setting [4]); in data set [3]; with HIV-1 Y181C variant (setting [5])) were 7.47, 8.35 and 6.33, respectively. For the same molecule, the CC50 in “in vitro” was found to be 2200 nM.

On to `Cc1cc(C)c(Nc2nc(Nc3ccc(C#N)cc3)nc(OCCN3CCOCC3)n2)c(C)c1` [Compound 6a, 4-((4-(mesitylamino)-6-(2-morpholinoethoxy)-1,3,5-triazin-2-yl)amino)benzonitrile], for which the pEC50 is 6.96 in data set [2] (setting [4]) and 6.15 in the data set with HIV-1 Y181C variant (setting [5]). Also, the “Aqueous Solubility (S)” value in “physchem” was found to be 4.42 µg/mL.

For `CC(C)c1cc(F)c(Nc2nc(Nc3ccc(C#N)cc3)nc(OCCCN3CCOCC3)n2)c(F)c1` [Compound 6g, 4-((4-((2,6-difluoro-4-isopropylphenyl)amino)-6-(3-morpholinopropoxy)-1,3,5-triazin-2-yl)amino)benzonitrile], the pEC50 in data set [2] (setting [4]) is 7.52; in the data set with HIV-1 Y181C variant (setting [5]) it was 6.57.

On to `N#CCCc1cc(F)c(Nc2nc(Nc3ccc(C#N)cc3)nc(OCCCN3CCOCC3)n2)c(F)c1` [Compound 6i, 4-((4-((4-(2-cyanoethyl)-2,6-difluorophenyl)amino)-6-(3-morpholinopropoxy)-1,3,5-triazin-2-yl)amino)benzonitrile], for which the pEC50 in data set [2] (setting [4]) was 7.70; in data set [3] it was 8.30; in the data set on HIV-1 Y181C variant (setting [5]), 6.64. Further, in the data set “physchem” (pH 6.5, aqueous buffer), the solubility at 48 h worked out at 25.4 µg/mL. Moreover, the CC50 in the data set “in vitro” stood at 27000 nM.

As for `Cc1cc(C)c(Nc2cc(OCCCN3CCOCC3)nc(Nc3ccc(C#N)cc3)n2)c(C)c1` [Compound 5b, 4-((4-(mesitylamino)-6-(3-morpholinopropoxy)pyrimidin-2-yl)amino)benzonitrile], the pEC50 in data set [2] (setting [4]) is 7.42; in the data set with HIV-1 Y181C variant (setting [6]), 6.32; with HIV-1 Y181C variant (setting [5]), 6.32. Moreover, in the data set “physchem”, the “increase in S” value amounted to 182 fold. For the same molecule, the “Aqueous Solubility (S)” value in “physchem” is 27.3 µg/mL.

Take `N#C/C=C/c1cc(F)c(Nc2nc(Nc3ccc(C#N)cc3)nc(OCCCN3CCOCC3)n2)c(F)c1` [Compound 6j, (E)-4-((4-((4-(2-cyanovinyl)-2,6-difluorophenyl)amino)-6-(3-morpholinopropoxy)-1,3,5-triazin-2-yl)amino)benzonitrile]: the pEC50 is 7.34 in data set [2] (setting [4]), 7.85 in data set [3] and 6.20 in the data set with HIV-1 Y181C variant (setting [5]). In the data set “in vitro”, this molecule registered a CC50 of 6500 nM.

`Cc1cc(/C=C/C#N)cc(C)c1Nc1nc(NCCCN2CCOCC2)nc(Nc2ccc(C#N)cc2)n1` [JLJ0596, (E)-4-((4-((4-(2-cyanovinyl)-2,6-dimethylphenyl)amino)-6-((3-morpholinopropyl)amino)-1,3,5-triazin-2-yl)amino)benzonitrile]: the results for the pEC50 (in data set [2] (setting [4]); in data set [3]; in the data set on HIV-1 Y181C variant (setting [5])) were 7.17, 8.15 and 6.29, respectively. In addition, the CC50 in “in vitro” came out at 1800 nM.

As to `COc1nc(Nc2ccc(C#N)c(OCC=C(C)C)c2)nc(OCCN2CCOCC2)n1` [Compound 2j, 4-((4-methoxy-6-(2-morpholinoethoxy)-1,3,5-triazin-2-yl)amino)-2-((3-methylbut-2-en-1-yl)oxy)benzonitrile], the “reduction in wild-type potency” value in data set [3] (relative to parent lacking the morpholinoalkoxy group (2a; 10a)) came to 9 fold. In addition, the “activity in the wild-type cell assay less” value in data set [3] (than rilpivirine or dapivirine) is 100 fold. Besides, the “activity towards the Y181C-containing viral variant” value with HIV-1 Y181C variant is “does not show activity”.

In the case of `Cc1cc(/C=C/C#N)cc(C)c1Nc1nc(Nc2ccc(C#N)cc2)nc(OCCCN2CCOCC2)n1` [Compound 6d, (E)-4-((4-((4-(2-cyanovinyl)-2,6-dimethylphenyl)amino)-6-(3-morpholinopropoxy)-1,3,5-triazin-2-yl)amino)benzonitrile], the solubility at 48 h in “physchem” (aqueous buffer) was determined as 14.2 µg/mL. In “physchem”, the “increase in S” value is listed as 100 fold and the “Aqueous Solubility (S)” value is 14.2 µg/mL.

For `Cc1cc(/C=C/C#N)cc(C)c1Nc1cc(OCCCN2CCOCC2)nc(Nc2ccc(C#N)cc2)n1` [Compound 5c, (E)-4-((4-((4-(2-cyanovinyl)-2,6-dimethylphenyl)amino)-6-(3-morpholinopropoxy)pyrimidin-2-yl)amino)benzonitrile], the pEC50 in data set [2] (setting [4]) is 8.52; in data set [3], 8.43; with HIV-1 Y181C variant (setting [5]), 7.82. The solubility at 48 h in the data set “physchem” (pH 6.5, aqueous buffer) worked out at 2 µg/mL. Moreover, the CC50 in “in vitro” amounted to 6400 nM.

For the molecule `Cc1cc(C)c(Nc2nc(Nc3ccc(C#N)cc3)nc(OCCCN3CCOCC3)n2)c(C)c1` [Compound 6b, 4-((4-(mesitylamino)-6-(3-morpholinopropoxy)-1,3,5-triazin-2-yl)amino)benzonitrile], the pEC50 in data set [2] (Human immunodeficiency virus 1, MT2, read-out: EC50, K103N/Y181C variant) is 7.51; in data set [2] (setting [4]), 7.51; with HIV-1 Y181C variant (setting [6]), 6.51; in the data set with HIV-1 Y181C variant (setting [5]), 6.51. Also, the “Aqueous Solubility (S)” value in the data set “physchem” turned out to be 15.3 µg/mL.

With `N#Cc1ccc(Nc2nc(Nc3c(F)cc(C4CC4)cc3F)nc(OCCCN3CCOCC3)n2)cc1` [Compound 6h, 4-((4-((4-cyclopropyl-2,6-difluorophenyl)amino)-6-(3-morpholinopropoxy)-1,3,5-triazin-2-yl)amino)benzonitrile], the pEC50 in data set [2] (setting [4]) is 6.82; in the data set on HIV-1 Y181C variant (setting [5]), 5.96.

Consider `Cc1cc(/C=C/C#N)cc(C)c1Nc1cc(NCCCN2CCOCC2)nc(Nc2ccc(C#N)cc2)n1` [JLJ0618, (E)-4-((4-((4-(2-cyanovinyl)-2,6-dimethylphenyl)amino)-6-((3-morpholinopropyl)amino)pyrimidin-2-yl)amino)benzonitrile], for which the pEC50 in data set [2] (setting [4]) is 8.70; in data set [3], 8.52; in the data set with HIV-1 Y181C variant (setting [5]) it was 7.77. Further, the CC50 in the data set “in vitro” was found to be 4500 nM.

Turning to `Cc1cc(C#N)cc(C)c1Nc1nc(Nc2ccc(C#N)cc2)nc(OCCCN2CCOCC2)n1` [Compound 6c, 4-((4-((4-cyanophenyl)amino)-6-(3-morpholinopropoxy)-1,3,5-triazin-2-yl)amino)-3,5-dimethylbenzonitrile], the pEC50 in data set [2] (setting [4]) was 7.38; in the data set with HIV-1 Y181C variant (setting [5]), 6.00. Also, the “Aqueous Solubility (S)” value in the data set “physchem” amounted to 13.3 µg/mL.

Regarding `Cc1cc(C)c(Nc2nc(Nc3ccc(C#N)cc3)nc(OCCC3CCNCC3)n2)c(C)c1` [Compound 12a, 4-((4-(mesitylamino)-6-(2-(piperidin-4-yl)ethoxy)-1,3,5-triazin-2-yl)amino)benzonitrile], the pEC50 in data set [2] (setting [4]) is 7.38; with HIV-1 Y181C variant (setting [5]) it was 6.00.
